Measured values from ChEMBL document CHEMBL1201862, “PubChem BioAssay data set” (2004).
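Assay format: 96-well plates, 48-hour exposure. GI50 is the concentration that inhibits growth by half.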 Calls of active or inactive are those of the source. Cut-off read from the data, not from the text of the source: active = GI50 up to about 1.1 µM and inactive = higher.

Assays:
Assay in all cases: NCI anticancer screen, dose series, 48 h
LOX IMVI = system: LOX IMVI
786-0 = system: 786-0
OVCAR-4 = system: OVCAR-4
HL-60 = system: HL-60
TK-10 = system: TK-10
CAKI-1 = system: CAKI-1
HCC 2998 = system: HCC 2998
ACHN = system: ACHN
SF-295 = system: SF-295
HT-29 = system: HT-29
SNB-75 = system: SNB-75
M14 = system: M14
UACC-62 = system: UACC-62
CCRF-CEM = system: CCRF-CEM
SK-MEL-5 = system: SK-MEL-5
SF-539 = system: SF-539
UO-31 = system: UO-31
Malme-3M = system: Malme-3M
SK-MEL-2 = system: SK-MEL-2

Compound	GI50 (LOX IMVI)	GI50 (786-0)	GI50 (OVCAR-4)	GI50 (HL-60)	GI50 (TK-10)	GI50 (CAKI-1)	GI50 (HCC 2998)	GI50 (ACHN)	GI50 (SF-295)	GI50 (HT-29)	GI50 (SNB-75)	GI50 (M14)	GI50 (UACC-62)	GI50 (CCRF-CEM)	GI50 (SK-MEL-5)	GI50 (SF-539)	GI50 (UO-31)	GI50 (Malme-3M)	GI50 (SK-MEL-2)
COc1ccc(C(c2ccc(C(C)C)cc(=O)c2O)c2c(O)cc3oc(-c4ccccc4)cc(=O)c3c2O)cc1 (configuration not stated)	14.6 µM (inactive)	3.57 µM (inactive)	7.53 µM (inactive)	4.4 µM (inactive)	9.42 µM (inactive)	9.04 µM (inactive)	3.58 µM (inactive)	4.21 µM (inactive)	4.93 µM (inactive)	17.7 µM (inactive)	4.51 µM (inactive)	7.26 µM (inactive)	6.65 µM (inactive)	4.04 µM (inactive)	11.5 µM (inactive)	3.05 µM (inactive)			
COc1ccc(CCn2ccc(C)n2)c(OC)c1	> 100 µM (inactive)		> 100 µM (inactive)		> 100 µM (inactive)	> 100 µM (inactive)		> 100 µM (inactive)	> 100 µM (inactive)	> 100 µM (inactive)	34 µM (inactive)	> 100 µM (inactive)	90.8 µM (inactive)	> 100 µM (inactive)	> 100 µM (inactive)	> 100 µM (inactive)	46.6 µM (inactive)	> 100 µM (inactive)	
CC/C=C(\C(=C/CC)[N+](=O)[O-])[N+](=O)[O-]	17.5 µM (inactive)		22.8 µM (inactive)		18.1 µM (inactive)	23.2 µM (inactive)	19.4 µM (inactive)	18.7 µM (inactive)	> 100 µM (inactive)	16.4 µM (inactive)	> 100 µM (inactive)	13.4 µM (inactive)	18 µM (inactive)	8.22 µM (inactive)	31 µM (inactive)	21.3 µM (inactive)	18.9 µM (inactive)		47.5 µM (inactive)
CCCNC(=O)C(C)C1CCC2(C)C=CC(=O)C(C)=C2C1O (configuration not stated)	> 100 µM (inactive)		> 100 µM (inactive)	> 100 µM (inactive)		> 100 µM (inactive)	> 100 µM (inactive)		> 100 µM (inactive)	> 100 µM (inactive)	> 100 µM (inactive)		> 100 µM (inactive)	> 100 µM (inactive)	> 100 µM (inactive)	> 100 µM (inactive)	> 100 µM (inactive)		> 100 µM (inactive)
C[C@H]1COC(c2ccccn2)=N1	> 100 µM (inactive)		> 100 µM (inactive)	> 100 µM (inactive)		> 100 µM (inactive)	> 100 µM (inactive)		> 100 µM (inactive)	> 100 µM (inactive)	> 100 µM (inactive)		> 100 µM (inactive)	> 100 µM (inactive)	> 100 µM (inactive)	> 100 µM (inactive)	> 100 µM (inactive)	> 100 µM (inactive)	> 100 µM (inactive)
CC12CCC3C(CCC4=CC(O)CCC43C=O)C1(O)CCC2c1ccc(=O)oc1 (configuration not stated)	0.00748 µM (active)		0.00723 µM (active)	0.00395 µM (active)			0.021 µM (active)		0.0104 µM (active)	0.00929 µM (active)	0.011 µM (active)		0.05 µM (active)		0.00622 µM (active)	0.00385 µM (active)	0.027 µM (active)		0.0116 µM (active)
CC1=N/C(=C/c2ccc3c(c2)OCO3)C(=O)O1	> 100 µM (inactive)	> 100 µM (inactive)	> 100 µM (inactive)		> 100 µM (inactive)	> 100 µM (inactive)		> 100 µM (inactive)		> 100 µM (inactive)	> 100 µM (inactive)	> 100 µM (inactive)	> 100 µM (inactive)	> 100 µM (inactive)	> 100 µM (inactive)	> 100 µM (inactive)	> 100 µM (inactive)	> 100 µM (inactive)	> 100 µM (inactive)
CCNCCCCNCC	> 3750 µM (inactive)		> 3750 µM (inactive)	736 µM (inactive)		> 3750 µM (inactive)	> 2670 µM (inactive)		> 3750 µM (inactive)	> 3750 µM (inactive)	> 3750 µM (inactive)		2750 µM (inactive)	1600 µM (inactive)	> 3750 µM (inactive)	> 3750 µM (inactive)	> 1230 µM (inactive)	> 3750 µM (inactive)	> 3750 µM (inactive)
CC(=O)NC(CCCNC(=O)N(C)N=O)C(=O)NCc1ccccc1 (configuration not stated)	> 100 µM (inactive)	> 100 µM (inactive)	> 100 µM (inactive)		> 100 µM (inactive)	> 100 µM (inactive)	> 100 µM (inactive)	> 100 µM (inactive)	> 100 µM (inactive)	> 100 µM (inactive)	52.1 µM (inactive)	> 100 µM (inactive)	> 100 µM (inactive)	> 100 µM (inactive)	> 100 µM (inactive)	> 100 µM (inactive)	> 100 µM (inactive)	> 100 µM (inactive)	> 100 µM (inactive)
COc1ccc2oc(-c3cccnc3)cc(=O)c2c1	47.5 µM (inactive)	> 100 µM (inactive)	> 100 µM (inactive)	52.5 µM (inactive)		42.7 µM (inactive)	> 100 µM (inactive)	59.3 µM (inactive)	> 100 µM (inactive)	59.4 µM (inactive)	40.8 µM (inactive)	> 100 µM (inactive)	80.7 µM (inactive)	49.9 µM (inactive)			27.2 µM (inactive)	> 100 µM (inactive)	> 100 µM (inactive)
C[C@]12CCC(=O)C=C1CC[C@@H]1C2CC[C@]2(C)NC(=O)C(C#N)CC12 (some centres not stated)		> 100 µM (inactive)	> 100 µM (inactive)	> 100 µM (inactive)	> 100 µM (inactive)	> 100 µM (inactive)	> 100 µM (inactive)	> 100 µM (inactive)	> 100 µM (inactive)	30.8 µM (inactive)	> 100 µM (inactive)	> 100 µM (inactive)	> 100 µM (inactive)	> 100 µM (inactive)	> 100 µM (inactive)	> 100 µM (inactive)	> 100 µM (inactive)	> 100 µM (inactive)	> 100 µM (inactive)
COc1ccc2nc3c(C(=O)NCCN(C)C)cccc3cc2c1	1.63 µM (inactive)		2.6 µM (inactive)	1.4 µM (inactive)		0.103 µM (active)	3.79 µM (inactive)		1.96 µM (inactive)	1.29 µM (inactive)	2.17 µM (inactive)		1.46 µM (inactive)	1.78 µM (inactive)	1.64 µM (inactive)	3.15 µM (inactive)	1.44 µM (inactive)		2.49 µM (inactive)
NC(Cc1cc(I)c(O)c(I)c1)C(=O)O (configuration not stated)	209 µM (inactive)		211 µM (inactive)	185 µM (inactive)		45.4 µM (inactive)	> 500 µM (inactive)		> 500 µM (inactive)	> 346 µM (inactive)	> 249 µM (inactive)		> 279 µM (inactive)	255 µM (inactive)	> 500 µM (inactive)	> 392 µM (inactive)	> 500 µM (inactive)	> 500 µM (inactive)	> 500 µM (inactive)
CN[C@@H](C)[C@@H](NC)c1ccccc1	> 100 µM (inactive)	> 100 µM (inactive)			> 100 µM (inactive)	> 100 µM (inactive)	> 100 µM (inactive)	> 100 µM (inactive)	> 100 µM (inactive)	> 100 µM (inactive)	> 100 µM (inactive)	> 100 µM (inactive)	> 100 µM (inactive)	> 100 µM (inactive)	> 100 µM (inactive)	> 100 µM (inactive)	> 100 µM (inactive)		
CC(=O)OC(C)C(=O)C1c2cccc(O)c2C(=O)c2c(O)cc(C)cc21 (configuration not stated)	0.483 µM (active)	1.09 µM (active)	0.452 µM (active)	0.308 µM (active)	1.42 µM (inactive)	1.71 µM (inactive)	0.429 µM (active)	0.579 µM (active)	0.344 µM (active)	1.66 µM (inactive)	0.52 µM (active)			0.711 µM (active)	0.357 µM (active)	0.254 µM (active)	0.261 µM (active)	0.56 µM (active)	0.429 µM (active)
CC(=O)Nc1cccc2[nH]c3ccccc3c(=O)c12		17.6 µM (inactive)	22.8 µM (inactive)	12.6 µM (inactive)	20.4 µM (inactive)	12.2 µM (inactive)		17.4 µM (inactive)	19.5 µM (inactive)	17 µM (inactive)	8.67 µM (inactive)	30.9 µM (inactive)	13.8 µM (inactive)	21.5 µM (inactive)	15.3 µM (inactive)	21.6 µM (inactive)	10.2 µM (inactive)	22.3 µM (inactive)	18.6 µM (inactive)
O=C(NCCNCCO)N/N=C/c1cccc([N+](=O)[O-])c1	> 100 µM (inactive)	> 100 µM (inactive)	> 100 µM (inactive)	> 100 µM (inactive)	> 100 µM (inactive)	> 100 µM (inactive)		> 100 µM (inactive)	> 100 µM (inactive)	> 100 µM (inactive)	> 100 µM (inactive)	> 100 µM (inactive)	> 100 µM (inactive)	> 100 µM (inactive)	> 100 µM (inactive)	> 100 µM (inactive)	> 100 µM (inactive)	> 100 µM (inactive)	> 100 µM (inactive)
[N-]=[N+]=CC(=O)CCC(NC(=O)C(CCC(=O)C=[N+]=[N-])NC(=O)CCC(N)C(=O)O)C(=O)O (configuration not stated)	> 100 µM (inactive)		> 100 µM (inactive)	> 100 µM (inactive)		> 100 µM (inactive)	> 100 µM (inactive)		> 100 µM (inactive)	> 100 µM (inactive)	> 100 µM (inactive)		> 100 µM (inactive)	> 100 µM (inactive)	> 100 µM (inactive)	> 100 µM (inactive)	> 100 µM (inactive)	> 100 µM (inactive)	> 100 µM (inactive)
